The results in this text go back to patent publication US10081615B2, “Sulfamate derivative compounds for use in treating or alleviating pain” (Bio-Pharm Solutions Co., Ltd., priority 2013, dated 2018).

Structures are written as SMILES.

Test [1] has as its system Vincristine-induced pain model. Nature of the test: Antiallodynic activity in the vincristine-induced pain model (von Frey). Format: in vivo, Sprague-Dawley rats. The conditions noted are these: rat, intraperitoneal. How it is done:
Male, Sprague-Dawley rats (300-320 g, Nara Bio, Korea) were habituated for 1 week before surgery and allowed free access to food and water throughout the experimentation. Room temperature and humidity were maintained at 24±2° C. and 50±10%, respectively.
The vincristine-induced pain model was established by the procedure of Natsuko et al. (2001) with minor modifications. Vincristine was intravenously infused continuously for 14 days using a mini-osmotic pump as follows: Vincristine sulfate solution (Hospira, Australia) was diluted with 0.9% saline to a final dose of 30 ug/kg. The pumps (Alzet Model 2002, USA) were filled with the vincristine solution and primed by incubation at 37° C. for 4 h before the infusion. Briefly, animals were put under gaseous anesthesia with isoflurane and NO with a 4:4 flow ratio. A catheter made from PE-60 tubing was inserted into an external jugular vein in the rat. Sham controls were prepared in the same manner, with the external jugular vein exposed, but not cut down. Preparation of the vehicle controls were identical to the group treated with compound, except for administration of vehicles without compound in the vehicle control group.
Tactile sensitivity (mechanical allodynia) was evaluated using von Frey monofilaments before and after treatment, and the animals were included in the study only if the withdrawal threshold value was less than 4 g. One week after surgery, vincristine-infused animals (n=6), sham-operated animals (n=12) and vehicle-operated (n=18) animals were tested for tactile sensitivity with von Frey monofilaments with 3 trials in each animal. All animals were placed in a stainless steel mesh chamber and habituated for 30 min in the test cage. The tactile sensitivity for the ipsilateral hind paw was measured using the up-and-down method (Dixon, 1980) with seven von Frey monofilaments (0.4, 1, 2, 4, 6, 8, and 15 g) in 3 trials. The tactile sensitivity test was followed by Dixon's method. The 50% paw withdrawal threshold for each paw was calculated using the following formula: [Xth] log=[vFr] log+ky where [vFr] is the force of the last von Frey used, k=0.2249 which is the average interval (in log units) between the von Frey monofilaments, and y is a value that depends upon the pattern of withdrawal responses (Dixon, 1980).
[…] The test was performed at the peak time of efficacy (0.5 hr) after compound administration.
The relative values compared to the sham (% control) were calculated and are shown in Table 11, which show an antiallodynic effect of the compound of examples in the vincristine-induced pain model in rats.

The subject of test [2] is CFA-induced pain model. Nature of the test: Antiallodynic activity on Complete Freund's Adjuvant (CFA)-induced inflammatory pain model (von Frey). The conditions noted are these: Rattus norvegicus, ip. Format: in vivo, Sprague-Dawley rats. The procedure: Male, Sprague-Dawley rats (200-220 g, Nara Bio, Korea) were habituated for 1 week before surgery and allowed free access to food and water throughout the experimentation. Room temperature and humidity were maintained at 24±2° C. and 50±10%, respectively.
CFA-induced inflammatory pain was induced by the procedure of Nagakura et al. (2003) and Gregory P. et al. (2010) with minor modifications. CFA (sigma, USA) was injected into the left plantar with a 100 ul volume under gaseous anesthesia with isoflurane and NO2 with a 4:4 flow ratio. Sham controls were injected with 100 ul of saline and preparation of the vehicle controls were identical to the group treated with compound, except for administration of vehicles without compound in the vehicle control group.
Tactile sensitivity (mechanical allodynia) was evaluated using von Frey monofilaments before and after treatment, and the animals were included in the study only if the withdrawal threshold value was less than 4 g. One week after surgery, CFA-infused animals (n=4˜6), sham-operated animals (n=12), and vehicle-operated animals (n=17) were tested for tactile sensitivity with von Frey monofilaments, with 3 trials for each animal. All animals were placed in a stainless steel mesh chamber and habituated for 30 min in the test cage. The tactile sensitivity for the ipsilateral hind paw was measured using the up-and-down method (Dixon, 1980) with seven von Frey monofilaments (0.4, 1, 2, 4, 6, 8, and 15 g) in 3 trials. The tactile sensitivity test was followed by Dixon's method (Dixon, 1980). The 50% paw withdrawal threshold for each paw was calculated using the following formula: [Xth] log=[vFr] log+ky where [vFr] is the force of the last von Frey used, k=0.2249 which is the average interval (in log units) between the von Frey monofilaments, and y is a value that depends upon the pattern of the withdrawal responses (Dixon, 1980).
The antiallodynic effect of the compound of Example was evaluated at the doses of 10, 30 and 60 mg/kg (n=4˜6), and were intraperitoneally administered in a volume of 5 ul/g by bodyweight in a vehicle of 30% (v/v) PEG. […]
The relative values compared to the sham (% control) were calculated and are shown in Table 4, which show an antiallodynic effect of the compound of examples in the CFA-induced pain model in rats.

Test [3] has as its system Post operation-induced pain model. Nature of the test: Antiallodynic activity on post operative pain-induced pain model (von Frey). Format: in vivo, Sprague-Dawley rats. The conditions noted are these: Rattus norvegicus, ip, 0.5 h, read-out: Post Operation: ED50 mg/kg. How it is done: Male Sprague-Dawley rats (Orient Bio, Korea), 300-320 g, total of 201 rats were used (details in Table 7). Rats were habituated at least 3 days before surgery and free access to food and water (room temperature and humidity were maintained at […] and 50±10%, respectively). The process of performing the post-operation model's surgery was adapted from Brennan et al (1996). At first, rats with allodynia (threshold valueless than 8 g) were excluded in Pre-von Frey Test. During the post-operation surgery, rats were anesthetized under gaseous anesthesia with 2% isoflurane. Rats were laid face down on a plate fixed at 37° C. to prevent against hypothermia. The ipsilateral plantar aspect (left side) of the hind paw was prepared in a sterile manner with a 10% povidone-iodine solution. A longitudinal incision (1 cm) (FIG. 2-A) was made with a blade (number 11) through the skin and fascia of the ipsilateral plantar aspect of the foot, starting from 0.5 cm below the proximal edge of the heel and extending toward the toes. Rats' plantar muscles were elevated and incised longitudinally (FIG. 2-B). After hemostasis with gentle pressure, the skin was opposed with 2 mattress sutures (4-0 Dafilon) (FIG. 2-C). The wound site was covered with a 10% povidone-iodine solution gauze and injected with antibiotics (gentamicin, 8 mg/kg, ip). The sutures were removed under halothane anesthesia approximately 30 hours later, at the end of post-operative day 1.
After 2-3 days of recovery, rats with a good response (threshold less than 4 g) in Pre-von Frey Test were selected. According to this response, we made three groups with each group having equal average responses: Group 1, post-operation and drug treated; Group 2, post-operation and vehicle treated; Group 3, no post-operation and vehicle treated. In this study, Group 3 was the sham control (positive) group. The group 2 was used to check for possible failures to generate post-operative pain.
For efficacy measure, the threshold value of group C was assigned 100% efficacy, and the percentage of the threshold values of group A compared to group C (for each different dose level) were calculated as the efficacies. Base on these efficacy values, ED50 was calculated using log fitting. If there was no clear ED50, then we marked the percent efficacy at the highest tested dose or larger than highest tested dose.
For pain threshold test, all animals were placed in a stainless steel meshed chamber and habituated for 30 min in the test box. The tactile sensitivity of the ipsilateral hind paw was measured using the up-and-down method (Dixon, 1980) with seven von Frey monofilaments (0.4, 1, 2, 4, 6, 8, and 15 g) using 3 trials. The 50% paw withdrawal threshold for each paw was calculated using the following formula: [Xth] log=[vFr] log+ky, where [vFr] is the force of the last von Frey filament used, k=0.2249 which is the average interval (in log units) between the von Frey monofilaments, y which is a value that depends upon the pattern of withdrawal responses, and Xth which is the threshold value (Dixon, 1980).
Drugs were dissolved 30% PEG400 for example 60, 0.9% saline for Pregabalin, 20% Tween80 for Tylenol, 0.9% saline for Topiramate. These vehicles were selected depending on the compound's solubility. Intraperitoneal injection (5 μl/g) was done for all drugs.
The relative values compared to the sham (% control) were calculated and shown in Table 8, which show an antiallodynic effect of the compound of examples on Post operation-induced pain model in rats.

Test [4] relates to acetic acid-induced writhes. Nature of the test: Writhing test (acetic acid). Format: in vivo, ICR mice. The note with it: Mus musculus, po, 0.5 h, read-out: Writh test: ED50 mg/kg. How it is done:
To examine the pain relief effect of the sulfamate derivative compounds, a writhing test was referring to Fischer, L. G. et al. (2008).
ICR mice (male, 24-28 g; Orient Bio, Korea) were habituated before test in test room for 1 hour. Animals were fasted for 2 hr before administration of compounds. […] All compounds were dissolved in a vehicle of 30% (v/v) PEG 400 or 20% (v/v) Tween 80. The control group was treated with the vehicle without compounds.
[…] Animals were habituated in the cage for 5 min. 5 min after habituation, the number of writhes (abdominal constriction) was counted for 15 minutes referring to Korzeniewska-Rybicka, I. et al. (1998) and compared with that of the control.
(In general: An intraperitoneal irritant provokes the stretching counted in writhing tests.)

For test [5], the system named is SNL model. Put plainly: Antiallodynic activity in the Chung model (SNL, Spinal Nerve Ligation; von Frey). Type of test: in vivo, Sprague-Dawley rats. The note with it: Rattus norvegicus, po, 0.5 h, read-out: SNL model: effect (%) compared to control, rat, oral, 3.5 mg/kg administered, 0.5 h. The procedure: Male Sprague-Dawley rats (200-220 g, Orient Bio, Korea) were habituated for 1 week before the experiment and allowed free access to food and water throughout the experimentation. Room temperature and humidity were maintained at 24±2° C. and 50±10%, respectively. The neuropathic surgery (SNL, Spinal Nerve Ligation) model was done as described in Kim and Chung (1992). Briefly, an animal was put under gaseous anesthesia with isoflurane and NO2 with a 4:4 flow ratio. The left lumbar spinal nerves L5 and L6 were isolated and tightly ligated with 4-0 silk thread. The wound was treated with a gentamicin antibiotic solution (4 mg/kg, 4 ul/g by bodyweight), and the wound muscle was closed with Catgut® chrome 4/0 thread and the skin was closed with Dafilon 4/0 thread. Sham controls were prepared in the same manner with the spinal nerves were exposed, but no ligated L5 and L6 nerves. Preparation of the vehicle controls were identical to the group treated with compound, except for administration of vehicles without compound in the vehicle control group.
Tactile sensitivity (mechanical allodynia) was evaluated using von Frey monofilaments before and after treatment and animals the animals were included in the study only if the withdrawal threshold value was less than 4 g. One week after surgery, SNL-operated animals (n=4˜6), sham-operated animals (n=4˜10) and vehicle-operated animals (n=4˜13) were tested for tactile sensitivity with von Frey monofilaments with 3 trials in each animal. All animals were placed in a stainless steel mesh chamber and habituated for 30 min in the test cage. The tactile sensitivity for ipsilateral hind paw was measured using the up-and-down method (Dixon, 1980) with seven von Frey monofilaments (0.4, 1, 2, 4, 6, 8, and 15 g) in 3 trials. The tactile sensitivity test was followed by Dixon's method (Dixon, 1980). The 50% paw withdrawal threshold for each paw was calculated using the following formula: [Xth] log=[vFr] log+ky where [vFr] is the force of the last von Frey used, k=0.2249 which is the average interval (in log units) between the von Frey monofilaments, and y is a value that depends upon the pattern of withdrawal responses (Dixon, 1980).
All animals were fasted for 18 h before the administration of the compounds. The antiallodynic effect of the compounds were evaluated at the various doses (n=5˜6), orally administered in a volume of 5 ul/g by bodyweight in a vehicle of 30% (v/v) PEG 400 (Example 7) or 20% (v/v) Tween 80 (Examples 5 and 6) or saline. […]
The relative values compared to the sham group (% control) were calculated and are shown in Table 5, which show an antiallodynic effect of the test compounds in the SNL model in rats.

For `CC1(C)Oc2ccccc2[C@@H](COS([NH-])(=O)=O)O1.[Na+]` [Example 59, Sodium (S)-(((2,2-dimethyl-4H-benzo[d][1,3]dioxin-4-yl)methoxy)sulfonyl)amide Trihydrate], the ED50 in test [1] (ip, 0.5 h) is 2.6 mg/kg; in test [2] (0.5 h, read-out: CFA model: ED50 mg/kg), 20.2 mg/kg; in test [3], 10.9 mg/kg; in test [4], 81.4 mg/kg.

Consider `CC1(C)Oc2ccccc2[C@@H](COS([NH-])(=O)=O)O1.[K+]` [Example 71, Potassium (S)-(((2,2-dimethyl-4H-benzo[d][1,3]dioxin-4-yl)methoxy)sulfonyl)amide], for which the “Vincristine model: effect (%) compared to control” value in test [1] (2.4 mg/kg administered, time not given) is reported as “(96.2%)”. In test [5], the response vs control in vivo at 3.5 mg/kg amounted to 15.9%. Also, in test [2] (read-out: CFA model: effect (%) compared to control), the response vs control in vivo at 25 mg/kg turned out to be 24.7%.
